Where two headings read alike, the source gives them in different places.
Assays:
HBV Cp T109I = assay: microbe, parasite or virus in culture; assay type: cell-based, Hepatitis B virus
HBV cccDNA = assay: cccDNA formation assay in infected HepG2-NTCP cells (Southern blot); assay type: cell-based; settings: Hepatitis B virus, 96 h, 4 days, read-out: cccDNA % of Control
in vitro [1] = settings: rat, plasma
in vitro [2] = settings: human
HBV Cp Y38F = assay: microbe, parasite or virus in culture; assay type: cell-based, Hepatitis B virus
HBV capsid DNA = assay: Incoming capsid assay in PHH cells; assay type: cell-based; settings: Hepatitis B virus, 3 h, read-out: Capsid DNA % of Control
[3] = rat, 1 μM
HBV cell culture models = settings: concentrations of up to 10 μM
HBV Cp P25A = assay: microbe, parasite or virus in culture; assay type: cell-based, Hepatitis B virus
in vivo = settings: male
Method: The same solution formulation was administered per os (p.o.) in the same species to determine oral bioavailability.
Pharmacokinetic studies were performed at Wuxi (Shanghai, China) for studies in male mouse, rat, and cynomolgus monkey and at Sai (Pune, India) for studies in male dog. For all oral studies, the formulation was administered in the fasted state (food removed at least 12 h prior to dosing) to groups of 3 per arm.

HBV genotype A = assay: microbe, parasite or virus in culture; assay type: cell-based; settings: Hepatitis B virus, read-out: Mean antiviral EC50
[4] = tested on: HBV (genotype D, subtype ayw); assay: HBV replication assay in HepAD38 cells; assay type: cell-based, Hepatitis B virus; settings: Hepatitis B virus
[5] = Hepatitis B virus, Huh-7, read-out: Mean EC50
[6] = Sprague-Dawley, rat, iv, 1 mg/kg
[7] = Sprague-Dawley, rat, po, 2 mg/kg
[8] = cynomolgus monkey, iv, 0.5 mg/kg

Q: For `O=C(NCc1cnc(C(F)(F)F)s1)c1ccc2c(c1)NC(=O)c1ccccc1S2(=O)=O` [ABI-H0731], which EC50 (HBV Cp T109I; [5]) is on record?
A: > 10000 nM

Q: What about the Fold shift (HBV Cp T109I; T109I vs wild type) of the same compound?
A: >68 fold

Q: What about the activity at 0.04 µM (HBV cccDNA; 0.04 μM) of the same compound?
A: 89%

Q: What about the activity at 0.12 µM (HBV cccDNA; 0.12 μM) of the same compound?
A: 95%

Q: And the activity at […] (HBV cccDNA; 0.37 μM)?
A: 98%

Q: And the activity at 1.11 µM (HBV cccDNA; 1.11 μM)?
A: 94%

Q: What about the activity at 3.33 µM (HBV cccDNA; 3.33 μM) of the same compound?
A: 86%

Q: And the activity at 10 µM (HBV cccDNA; 10.0 μM)?
A: 30%

Q: What about the fraction unbound at 6 h (in vitro [1]) of the same compound?
A: 0.02 to 0.052

Q: What about the CC50 at 4 days (in vitro [2]) of the same compound?
A: > 10000 nM

Q: What about the EC50 (HBV Cp Y38F; [5]) of the same compound?
A: 481 ± 34 nM

Q: What about the Fold shift (HBV Cp Y38F; Y38F vs wild type) of the same compound?
A: 3.3 fold

Q: What about the activity at […] (HBV capsid DNA; 0.37 μM) of the same compound?
A: 71%

Q: What about the activity at 1.11 µM (HBV capsid DNA; 1.11 μM) of the same compound?
A: 60%

Q: What about the activity at 3.33 µM (HBV capsid DNA; 3.33 μM) of the same compound?
A: 32%

Q: What about the activity at 10 µM (HBV capsid DNA; 10.0 μM) of the same compound?
A: 9%

Q: What about the “% LBF” value [3] of the same compound?
A: 32%

Q: What about the CLpred [3] of the same compound?
A: 21 mL/min/kg

Q: What about the cytotoxicity (HBV cell culture models) of the same compound?
A: No cytotoxicity was observed

Q: What about the EC50 (HBV Cp P25A; [5]) of the same compound?
A: 169 ± 41 nM

Q: What about the Fold shift (HBV Cp P25A; P25A vs wild type) of the same compound?
A: 1.2 fold

Q: What about the Vd (in vivo; CD-1 (mouse), Sprague-Dawley (rat), beagle (dog), cynomolgus monkey, iv) of the same compound?
A: 1.56 to 4.06 L/kg

Q: And the Tmax (in vivo; CD-1 (mouse), Sprague-Dawley (rat), beagle (dog), cynomolgus monkey, po)?
A: 0.7 to 3.3 h

Q: What about the “plasma clearance as % of liver blood flow” value (“plasma clearance as %” below) (in vivo; CD-1, mouse, iv) of the same compound?
A: 9%

Q: And the AUC(0-inf) (in vivo; CD-1, mouse, iv, 1 mg/kg)?
A: 2070 ng·h/mL

Q: And the T1/2 (in vivo; CD-1, mouse, iv, 1 mg/kg)?
A: 3.55 h

Q: What about the Vd (in vivo; CD-1, mouse, iv, 1 mg/kg) of the same compound?
A: 2.16 L/kg

Q: And the clearance (in vivo; CD-1, mouse, iv, 1 mg/kg)?
A: 8.05 mL/min/kg

Q: And the half-life (in vivo; CD-1, mouse, iv, 1 mg/kg, T1/2)?
A: 3.6 h

Q: And the AUC(0-inf) (in vivo; CD-1, mouse, po, 5 mg/kg)?
A: 8690 ng·h/mL

Q: And the Cmax (in vivo; CD-1, mouse, po, 5 mg/kg)?
A: 1420 ng/mL

Q: And the Tmax (in vivo; CD-1, mouse, po, 5 mg/kg)?
A: 1 h

Q: And the bioavailability (in vivo; CD-1, mouse, po, 5 mg/kg)?
A: 84%

Q: What about the half-life (in vivo; CD-1, mouse, po, 5 mg/kg, T1/2) of the same compound?
A: 3.03 h

Q: What about the “plasma clearance as %” value (in vivo; Sprague-Dawley, rat, iv) of the same compound?
A: 16%

Q: What about the AUC(0-inf) (in vivo; [6]) of the same compound?
A: 1670 ng·h/mL

Q: What about the T1/2 (in vivo; [6]) of the same compound?
A: 4.92 h

Q: And the Vd (in vivo; [6])?
A: 3.47 L/kg

Q: And the clearance (in vivo; [6])?
A: 10.1 mL/min/kg

Q: And the half-life (in vivo; Sprague-Dawley, rat, iv, 1 mg/kg, T1/2)?
A: 4.9 h

Q: And the AUC(0-inf) (in vivo; [7])?
A: 3160 ng·h/mL

Q: What about the Cmax (in vivo; [7]) of the same compound?
A: 324 ng/mL

Q: What about the Tmax (in vivo; [7]) of the same compound?
A: 1 h

Q: And the bioavailability (in vivo; [7])?
A: 95%

Q: What about the half-life (in vivo; Sprague-Dawley, rat, po, 2 mg/kg, T1/2) of the same compound?
A: 6.13 h

Q: What about the “plasma clearance as %” value (in vivo; beagle, dog, iv) of the same compound?
A: 47%

Q: What about the AUC(0-inf) (in vivo; beagle, dog, iv, 2 mg/kg) of the same compound?
A: 2890 ng·h/mL

Q: What about the T1/2 (in vivo; beagle, dog, iv, 2 mg/kg) of the same compound?
A: 2.46 h

Q: And the Vd (in vivo; beagle, dog, iv, 2 mg/kg)?
A: 1.56 L/kg

Q: What about the clearance (in vivo; beagle, dog, iv, 2 mg/kg) of the same compound?
A: 14.7 mL/min/kg

Q: What about the half-life (in vivo; beagle, dog, iv, 2 mg/kg, T1/2) of the same compound?
A: 2.5 h

Q: And the bioavailability (in vivo; beagle, dog, po)?
A: 49%

Q: And the AUC(0-inf) (in vivo; beagle, dog, po, 3 mg/kg)?
A: 2150 ng·h/mL

Q: What about the Cmax (in vivo; beagle, dog, po, 3 mg/kg) of the same compound?
A: 861 ng/mL

Q: And the Tmax (in vivo; beagle, dog, po, 3 mg/kg)?
A: 0.667 h

Q: And the half-life (in vivo; beagle, dog, po, 3 mg/kg, T1/2)?
A: 3.34 h

Q: And the “plasma clearance as %” value (in vivo; cynomolgus monkey, iv)?
A: 11%

Q: What about the AUC(0-inf) (in vivo; [8]) of the same compound?
A: 1750 ng·h/mL

Q: What about the Vd (in vivo; [8]) of the same compound?
A: 4.06 L/kg

Q: And the clearance (in vivo; [8])?
A: 4.86 mL/min/kg

Q: What about the half-life (in vivo; [8]) of the same compound?
A: 12.6 h

Q: And the AUC(0-inf) (in vivo; cynomolgus monkey, po, 2 mg/kg)?
A: 4340 ng·h/mL

Q: What about the Cmax (in vivo; cynomolgus monkey, po, 2 mg/kg) of the same compound?
A: 353 ng/mL

Q: What about the Tmax (in vivo; cynomolgus monkey, po, 2 mg/kg) of the same compound?
A: 3.33 h

Q: And the bioavailability (in vivo; cynomolgus monkey, po, 2 mg/kg)?
A: 55%

Q: What about the half-life (in vivo; cynomolgus monkey, po, 2 mg/kg) of the same compound?
A: 11.6 h

Q: And the EC50 (HBV genotype A)?
A: 113 ± 22 nM

Q: What about the EC50 ([4]; HePAD38, HepAD38, concomitantly determined with HepG2-NrtI^R, read-out: Mean EC50) of the same compound?
A: 221 ± 19 nM

Q: What about the EC50 ([4]; HePAD38, HepAD38, total intracellular viral DNA, read-out: Mean EC50, viral DNA) of the same compound?
A: 173 ± 40 nM

Reference: paper PMC7577125 (Antimicrobial Agents and Chemotherapy, 2020)
